According to patent US12187728B2 (Raze Therapeutics, Inc., priority 2015, dated 2025):

Molecular target: T1, Human MTHFD2 (Homo sapiens, UniProt P13995)
T1 construct: residues 36-350 in Uniport ID P13995; His6 (N); made in house; host or cells: E. coli
T1 sequence (P13995 36-350): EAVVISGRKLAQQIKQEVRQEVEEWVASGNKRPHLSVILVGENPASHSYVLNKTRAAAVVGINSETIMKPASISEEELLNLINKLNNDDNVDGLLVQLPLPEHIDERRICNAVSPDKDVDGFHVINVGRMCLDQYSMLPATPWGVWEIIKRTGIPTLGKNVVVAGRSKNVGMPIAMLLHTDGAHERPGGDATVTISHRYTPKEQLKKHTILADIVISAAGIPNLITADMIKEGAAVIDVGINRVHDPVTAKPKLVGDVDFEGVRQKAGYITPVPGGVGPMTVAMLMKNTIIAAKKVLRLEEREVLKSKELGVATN
Test: MTHFD2 Activity Assay (dehydrogenase activity, diaphorase/resazurin coupled fluorescence)
Type: biochemical
Conditions: inhibitory activity (IC50 and/or binding constant); 0.2 nM MTHFD2, 11 concentrations
Outline: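 His6-tagged MTHFD2 (res. 36-350), E. coli-expressed, at 0.2 nM preincubated with compound 15 min in Hepes pH 8.0/MgCl2/KH2PO4 buffer; 70 μM CH2-THF, 1 mM NAD+ added with resazurin/diaphorase, 30 min, EDTA stop. Resorufin fluorescence (ex 525/em 598); IC50 from 11-point 4-parameter fit.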

| IC50 [µM] | Structure (SMILES) |
| --- | --- |
| 1 to 5 | C=Cc1nc2c(c(=O)n(Cc3ccc(Cl)c(Cl)c3)c(=O)n2C)n1C [Example 160, 1-(3,4-dichlorobenzyl)-3,7-dimethyl-8-vinyl-1H-purine-2,6(3H,7H)-dione] |
| 0.01 to 1 | Cn1c(Nc2ccc(C(F)(F)F)nc2)nc2c1c(=O)n(Cc1cc3c(Cl)cccc3[nH]1)c(=O)n2C [Example 382, 1-((4-chloro-1H-indol-2-yl)methyl)-3,7-dimethyl-8-(6-(trifluoromethyl)pyridin-3-ylamino)-1H-purine-2,6(3H,7H)-dione] |
| 0.01 to 1 | CCN(CC)C(=O)CCc1nccc(Nc2nc3c(c(=O)n(Cc4cc5c(Cl)cccc5[nH]4)c(=O)n3C)n2C)n1 [Example 426, 3-(4-(1-((4-chloro-1H-indol-2-yl)methyl)-3,7-dimethyl-2,6-dioxo-2,3,6,7-tetrahydro-1H-purin-8-ylamino)pyrimidin-2-yl)-N,N-diethylpropanamide] |
| 0.01 to 1 | Cn1c(NC2(C(=O)O)CC2)nc2c1c(=O)n(Cc1ccc(Cl)c(Cl)c1)c(=O)n2C [Example 147, 1-(1-(3,4-dichlorobenzyl)-3,7-dimethyl-2,6-dioxo-2,3,6,7-tetrahydro-1H-purin-8-ylamino)cyclopropanecarboxylic acid] |
| 0.01 to 1 | Cn1c(C(N)C(CO)CO)nc2c1c(=O)n(Cc1cc3c(Cl)cccc3[nH]1)c(=O)n2C (stereo not drawn) [Example 465, 8-[1-amino-3-hydroxy-2-(hydroxymethyl)propyl]-1-[(4-chloro-1H-indol-2-yl)methyl]-3,7-dimethyl-purine-2,6-dione] |
| 0.01 to 1 | Cn1c(Cn2c(=O)c3c(nc(Nc4cc[nH]c(=O)n4)n3C)n(C)c2=O)cc2cc(Cl)ccc21 [Example 224, 1-((5-chloro-1-methyl-1H-indol-2-yl)methyl)-3,7-dimethyl-8-(2-oxo-1,2-dihydropyrimidin-4-ylamino)-1H-purine-2,6(3H,7H)-dione] |
| 0.01 to 1 | CC(N)c1nc2c(c(=O)n(Cc3cc4c(Cl)cccc4[nH]3)c(=O)n2C)n1C (stereo not drawn) [Example 389, 8-(1-aminoethyl)-1-[(4-chloro-1H-indol-2-yl)methyl]-3,7-dimethyl-purine-2,6-dione] |
| 1 to 5 | Cn1c(Nc2ccnc(C3CC(O)C3)c2)nc2c1c(=O)n(Cc1ccc(Cl)c(Cl)c1)c(=O)n2C (stereo not drawn) [Example 344, 1-(3,4-diclorobenzyl)-8-(2-(3-hydroxylcyclobutyl)pyridine-4-ylamino)-3,7-dimethyl-1-H-purine-2,6(3H,7H)-dione] |
| 0.01 to 1 | Cn1c(Nc2ccc(C(=O)O)cc2)nc2c1c(=O)n(Cc1cc3ccccc3[nH]1)c(=O)n2C [Example 297, 4-[[1-(1H-indol-2-ylmethyl)-3,7-dimethyl-2,6-dioxo-purin-8-yl]amino]benzoic acid] |
| 1 to 5 | Cn1c(Nc2cccc([C@H]3C[C@@H]3CO)n2)nc2c1c(=O)n(Cc1cc3c(Cl)cccc3[nH]1)c(=O)n2C (racemic) [Example 335, (±)-trans-1-((4-chloro-1H-indol-2-yl)methyl)-8-((6-(-2-(hydroxymethyl)cyclopropyl)pyridin-2-yl)amino)-3,7-dimethyl-1H-purine-2,6(3H,7H)-dione] |
| 0.01 to 1 | Cn1c(Nc2ccc(C(N)=O)cc2)nc2c1c(=O)n(Cc1ccc(Cl)c(Cl)c1)c(=O)n2C [Example 313, 4-[[1-[(3,4-dichlorophenyl)methyl]-3,7-dimethyl-2,6-dioxo-purin-8-yl]amino]benzamide] |
| 1 to 5 | Cn1c(Nc2ccccc2C#N)nc2c1c(=O)n(Cc1ccc(Cl)c(Cl)c1)c(=O)n2C [Example 142, 2-(1-(3,4-dichlorobenzyl)-3,7-dimethyl-2,6-dioxo-2,3,6,7-tetrahydro-1H-purin-8-ylamino)benzonitrile] |
| 0.01 to 1 | Cn1c(N[C@H]2CC[C@@H](C(=O)O)C2)nc2c1c(=O)n(Cc1ccc(Cl)c(Cl)c1)c(=O)n2C [Example 64, (1R,3S)-3-(1-(3,4-dichlorobenzyl)-3,7-dimethyl-2,6-dioxo-2,3,6,7-tetrahydro-1H-purin-8-ylamino)cyclopentanecarboxylic acid] |
| 1 to 5 | Cn1c(N[C@@H]2CCC[C@@H]2C(=O)O)nc2c1c(=O)n(Cc1ccc(C(F)(F)F)cc1)c(=O)n2C [Example 110, (1S,2R)-2-(3,7-dimethyl-2,6-dioxo-1-(4-(trifluoromethyl)benzyl)-2,3,6,7-tetrahydro-1H-purin-8-ylamino)cyclopentanecarboxylic acid] |
| 0.01 to 1 | Cn1c(Nc2ccc(F)nc2)nc2c1c(=O)n(Cc1cc3c(Cl)cccc3[nH]1)c(=O)n2C [Example 384, 1-((4-chloro-1H-indol-2-yl)methyl)-8-(6-fluoropyridin-3-ylamino)-3,7-dimethyl-1H-purine-2,6(3H,7H)-dione] |
| 0.01 to 1 | Cn1c(N[C@H]2CC[C@@H](O)C2)nc2c1c(=O)n(Cc1ccc(Cl)c(Cl)c1)c(=O)n2C (single isomer, unassigned) [Example 43, 1-(3,4-dichlorobenzyl)-8-((1S,3R)-3-hydroxycyclopentylamino)-3,7-dimethyl-1H-purine-2,6(3H,7H)-dione or 1-(3,4-dichlorobenzyl)-8-((1R,3S)-3-hydroxycyclopentylamino)-3,7-dimethyl-1H-purine-2,6(3H,7H)-dione] |
| 0.01 to 1 | Cn1c(N[C@H]2CCC[C@@H](O)C2)nc2c1c(=O)n(Cc1ccc(Cl)c(Cl)c1)c(=O)n2C (single isomer, unassigned) [Example 78, 1-(3,4-dichlorobenzyl)-8-((1S,3R)-3-hydroxycyclohexylamino)-3,7-dimethyl-1H-purine-2,6(3H,7H)-dione or 1-(3,4-dichlorobenzyl)-8-((1R,3S)-3-hydroxycyclohexylamino)-3,7-dimethyl-1H-purine-2,6(3H,7H)-dione] |
| 0.01 to 1 | Cn1c(NCCCO)nc2c1c(=O)n(Cc1ccc3sccc3c1)c(=O)n2C [Example 52, 1-(1-benzothiophen-5-ylmethyl)-8-[(3-hydroxypropyl)amino]-3,7-dimethyl-2,3,6,7-tetrahydro-1H-purine-2,6-dione] |
| 0.01 to 1 | Cn1c(C(C(N)=O)c2ccncc2)nc2c1c(=O)n(Cc1cc3c(Cl)cccc3[nH]1)c(=O)n2C (stereo not drawn) [Example 480, 2-(1-((4-chloro-1H-indol-2-yl)methyl)-3,7-dimethyl-2,6-dioxo-2,3,6,7-tetrahydro-1H-purin-8-yl)-2-(pyridin-4-yl)acetamide] |
| 5 to 10 | Cn1cnc2c1c(=O)n(Cc1cc3cccnc3[nH]1)c(=O)n2C [Example 290, 1-((1H-pyrrolo[2,3-b]pyridin-2-yl)methyl)-3,7-dimethyl-1H-purine-2,6(3H,7H)-dione] |
| 0.01 to 1 | Cn1c(C(N)c2cccnc2)nc2c1c(=O)n(Cc1cc3c(Cl)cccc3[nH]1)c(=O)n2C (stereo not drawn) [Example 445, 8-[amino(3-pyridyl)methyl]-1-[(4-chloro-1H-indol-2-yl)methyl]-3,7-dimethyl-purine-2,6-dione] |
| 0.01 to 1 | Cn1c(NC2COC2)nc2c1c(=O)n(Cc1ccc(Cl)c(Cl)c1)c(=O)n2C [Example 245, 1-(3,4-dichlorobenzyl)-3,7-dimethyl-8-(oxetan-3-ylamino)-1H-purine-2,6(3H,7H)-dione] |
| 0.01 to 1 | Cn1c(C(N)C2CCCCC2)nc2c1c(=O)n(Cc1cc3c(Cl)cccc3[nH]1)c(=O)n2C (stereo not drawn) [Example 446, 8-[amino(cyclohexyl)methyl]-1-[(4-chloro-1H-indol-2-yl)methyl]-3,7-dimethyl-purine-2,6-dione] |
| 1 to 5 | Cn1c(NCCCO)nc2[nH]c(=O)n(Cc3ccc(Cl)c(Cl)c3)c(=O)c21 [Example 97, 1-[(3,4-dichlorophenyl)methyl]-8-[(3-hydroxypropyl)amino]-7-methyl-2,3,6,7-tetrahydro-1H-purine-2,6-dione] |
| 0.01 to 1 | CCC(N)c1nc2c(c(=O)n(Cc3cc4c(Cl)cccc4[nH]3)c(=O)n2C)n1C (stereo not drawn) [Example 434, 8-(1-aminopropyl)-1-[(4-chloro-1H-indol-2-yl)methyl]-3,7-dimethyl-purine-2,6-dione] |
| 0.01 to 1 | Cn1c(Nc2ccc(Cl)nc2)nc2c1c(=O)n(Cc1cc3c(Cl)cccc3[nH]1)c(=O)n2C [Example 381, 1-((4-chloro-1H-indol-2-yl)methyl)-8-(6-chloropyridin-3-ylamino)-3,7-dimethyl-1H-purine-2,6(3H,7H)-dione] |
| 0.01 to 1 | Cc1cc(Nc2nc3c(c(=O)n(Cc4cc5c(Cl)cccc5[nH]4)c(=O)n3C)n2C)nc(CCC(N)=O)n1 [Example 475, 3-(4-(1-((4-chloro-1H-indol-2-yl)methyl)-3,7-dimethyl-2,6-dioxo-2,3,6,7-tetrahydro-1H-purin-8-ylamino)-6-methylpyrimidin-2-yl)propanamide] |
| 0.01 to 1 | Cn1c(N[C@H]2C[C@@H](C(=O)O)C2)nc2c1c(=O)n(Cc1ccc(Cl)c(Cl)c1)c(=O)n2C [Example 259, (±)-(cis)-3-(1-(3,4-dichlorobenzyl)-3,7-dimethyl-2,6-dioxo-2,3,6,7-tetrahydro-1H-purin-8-ylamino)cyclobutanecarboxylic acid] |
| 0.01 to 1 | Cn1c(NC2CCCC(O)C2)nc2c1c(=O)n(Cc1ccc(Cl)c(Cl)c1)c(=O)n2C (stereo not drawn) [Example 33, 1-[(3,4-dichlorophenyl)methyl]-8-[(3-hydroxycyclohexyl)amino]-3,7-dimethyl-2,3,6,7-tetrahydro-1H-purine-2,6-dione] |
| > 10 | Cn1c(N[C@H](CO)CC2CCCCC2)nc2c1c(=O)n(Cc1ccc(C(F)(F)F)cc1)c(=O)n2C [Example 120, (S)-8-(1-cyclohexyl-3-hydroxypropan-2-ylamino)-3,7-dimethyl-1-(4-(trifluoromethyl)benzyl)-1H-purine-2,6(3H,7H)-dione] |
